Laboratory results: ChEMBL document CHEMBL3792352, “3D-QSAR-aided design, synthesis, in vitro and in vivo evaluation of dipeptidyl boronic acid proteasome inhibitors and mechanism studies” (Bioorg Med Chem, 2016)

Experiments:
[1] = target: T1, Proteasome Macropain subunit MB1 (Homo sapiens, UniProt P28074); test: Inhibition of chymotrypsin like activity of human 20S proteasome using Suc-Leu-Leu-Val-Tyr-AMC as substrate preincubated for 10 mins followed by substrate addition measured after 1 hr by spectrofluorimetric analysis
T1 sequence (P28074 whole entry): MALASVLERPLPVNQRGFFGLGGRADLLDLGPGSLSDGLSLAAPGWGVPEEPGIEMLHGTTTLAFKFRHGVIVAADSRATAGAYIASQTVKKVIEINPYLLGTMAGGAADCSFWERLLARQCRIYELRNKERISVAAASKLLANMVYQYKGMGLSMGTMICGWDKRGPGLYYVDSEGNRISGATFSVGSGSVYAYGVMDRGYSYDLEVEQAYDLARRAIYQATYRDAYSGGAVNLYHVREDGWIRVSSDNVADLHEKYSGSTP

[2] = AUClast in Sprague-Dawley rat at 1 mg/kg, caudal iv by LC/MS/MS analysis; assay type: ADME, organism-based; set-up: dose 1 mg/kg, route intravenous, time 0 - last; details: in vivo
[3] = Cytotoxicity against human U266B1 cells assessed as cell viability after 72 hrs by CellTiter 96 aqueous one solution cell proliferation assay; assay type: functional, U-266
[4] = Elimination half life in Sprague-Dawley rat at 1 mg/kg, caudal iv by LC/MS/MS analysis; assay type: ADME, organism-based; details: in vivo, read-out: beta t1/2 (converted)
[5] = Cytotoxicity against human RPMI8226 cells assessed as cell viability after 72 hrs by CellTiter 96 aqueous one solution cell proliferation assay; assay type: functional, RPMI-8226
Rattus norvegicus [6] = test: AUC(0 to infinity) in Sprague-Dawley rat at 0.2 mg/kg, ig through feeding tube by LC/MS/MS analysis; assay type: ADME, organism-based; set-up: dose 0.2 mg/kg, route intragastric, time infinity; details: in vivo, po
[7] = Cytotoxicity against human ARH77 cells assessed as cell viability after 72 hrs by CellTiter 96 aqueous one solution cell proliferation assay; assay type: functional, ARH-77
[8] = Cell cycle arrest in human U266 cells assessed as accumulation at G2/M phase at 10 nM by propidium iodide/RNase staining based flow cytometric analysis (reference value: 12.33 %); assay type: functional; details: U-266
[9] = AUC(0 to infinity) in Sprague-Dawley rat at 1 mg/kg, caudal iv by LC/MS/MS analysis; assay type: ADME, organism-based; set-up: dose 1 mg/kg, route intravenous, time infinity; details: in vivo
[10] = Cmax in Sprague-Dawley rat at 1 mg/kg, caudal iv by LC/MS/MS analysis; assay type: ADME, organism-based; set-up: dose 1 mg/kg, route intravenous; details: in vivo
[11] = Cell cycle arrest in human U266 cells assessed as accumulation at S phase at 10 nM by propidium iodide/RNase staining based flow cytometric analysis (reference value: 29.47 %); assay type: functional; details: U-266
[12] = Cell cycle arrest in human U266 cells assessed as accumulation at G1 phase at 10 nM by propidium iodide/RNase staining based flow cytometric analysis (reference value: 58.21 %); assay type: functional; details: U-266
[13] = AUClast in Sprague-Dawley rat at 0.2 mg/kg, ig through feeding tube by LC/MS/MS analysis; assay type: ADME, organism-based; set-up: dose 0.2 mg/kg, route intragastric, time 0 - last; details: in vivo, po
Rattus norvegicus [14] = test: Cmax in Sprague-Dawley rat at 0.2 mg/kg, ig through feeding tube by LC/MS/MS analysis; assay type: ADME, organism-based; set-up: dose 0.2 mg/kg, route intragastric; details: in vivo, po
[15] = MRTlast in Sprague-Dawley rat at 1 mg/kg, caudal iv by LC/MS/MS analysis; assay type: ADME, organism-based; details: in vivo
Rattus norvegicus [16] = test: Elimination half life in Sprague-Dawley rat at 0.2 mg/kg, ig through feeding tube by LC/MS/MS analysis; assay type: ADME, organism-based; details: in vivo, po
Rattus norvegicus [17] = test: Tmax in Sprague-Dawley rat at 0.2 mg/kg, ig through feeding tube by LC/MS/MS analysis; assay type: ADME, organism-based; details: in vivo, po
[18] = MRTlast in Sprague-Dawley rat at 0.2 mg/kg, ig through feeding tube by LC/MS/MS analysis; assay type: ADME, organism-based; details: in vivo, po

SMILES	IC50 ([1]; read-out: IC50)	also measured
CC(C)C[C@H](NC(=O)[C@H](CC(C)C)NC(=O)C1CCCc2ccccc21)B1OC2C[C@@H]3C[C@@H](C3(C)C)[C@]2(C)O1 (stereo partly specified)	14.2 nM	–
CC(C)C[C@H](NC(=O)[C@H](Cc1ccc2ccccc2c1)NC(=O)[C@H]1CCCc2ccccc21)B1OC2C[C@@H]3C[C@@H](C3(C)C)[C@]2(C)O1 (stereo partly specified)	6.12 nM	–
CCCC[C@H](NC(=O)[C@H](Cc1ccccc1)NC(=O)[C@H]1CCCc2ccccc21)B1OC2C[C@@H]3C[C@@H](C3(C)C)[C@]2(C)O1 (stereo partly specified)	1.92 nM	–
COc1ccc(C[C@H](NC(=O)c2cc(Cl)ccc2Cl)C(=O)N[C@@H](CC(C)C)B(O)O)c(OC)c1	4.6 nM	AUC(0-t) [2]: 47.9 ng·h/mL; Activity [3]: 18.66%; half-life [4]: 7.24 h; Activity [5]: 37.78%; AUC (Rattus norvegicus [6]): 408 ng·h/mL; Activity [7]: 14.58%; Activity [8]: 21.5%; AUC(0-inf) [9]: 83 ng·h/mL; Cmax [10]: 7.83 ng/mL; Activity [11]: 34.8%; Activity [12]: 43.7%; AUC(0-t) [13]: 407 ng·h/mL; Cmax (Rattus norvegicus [14]): 245 ng/mL; MRT last [15]: 8.44 h; beta t1/2 (Rattus norvegicus [16]): 0.2 h; Tmax (Rattus norvegicus [17]): 1.8 min; MRT last [18]: 6.9 h
CC(C)C[C@H](NC(=O)[C@H](Cc1c[nH]c2ccccc12)NC(=O)C1CCCc2ccccc21)B1OC2C[C@@H]3C[C@@H](C3(C)C)[C@]2(C)O1 (stereo partly specified)	3.67 nM	–
CC(C)C[C@H](NC(=O)[C@H](CC(C)C)NC(=O)c1cccc2c1CCCC2)B1OC2C[C@@H]3C[C@@H](C3(C)C)[C@]2(C)O1 (stereo partly specified)	1.15 nM	–
CC(C)C[C@H](NC(=O)[C@H](Cc1cc(C(F)(F)F)cc(C(F)(F)F)c1)NC(=O)c1cc(Cl)ccc1Cl)B(O)O	25 nM	–
CC(C)C[C@H](NC(=O)[C@H](Cc1ccccc1)NC(=O)c1cnccn1)B1OC2C[C@@H]3C[C@@H](C3(C)C)[C@]2(C)O1 (stereo partly specified)	1.92 nM	–
CC(C)(C)OC(=O)N[C@@H](Cc1ccc(O)cc1)C(=O)N[C@@H](Cc1ccccc1)B1OC2C[C@@H]3C[C@@H](C3(C)C)[C@]2(C)O1 (stereo partly specified)	114 nM	–
Cc1ccc(C[C@H](NC(=O)[C@H](Cc2ccccc2)NC(=O)C2CCc3ccccc3C2)B2OC3C[C@@H]4C[C@@H](C4(C)C)[C@]3(C)O2)cc1 (stereo partly specified)	1.16 nM	–
CC(C)C[C@H](NC(=O)[C@H](Cc1cccc2ccccc12)NC(=O)c1ccc2ccccc2c1)B1OC2C[C@@H]3C[C@@H](C3(C)C)[C@]2(C)O1 (stereo partly specified)	2.46 nM	–
CC1(C)[C@@H]2CC3OB([C@H](Cc4ccccc4)NC(=O)[C@H](Cc4ccccc4)NC(=O)C4CCc5ccccc5C4)O[C@@]3(C)[C@H]1C2 (stereo partly specified)	3.37 nM	–
Cc1ccc(C[C@H](NC(=O)[C@H](Cc2ccccc2)NC(=O)c2cnccn2)B2OC3C[C@@H]4C[C@@H](C4(C)C)[C@]3(C)O2)cc1 (stereo partly specified)	4.85 nM	–
CC(C)C[C@H](NC(=O)[C@H](Cc1c[nH]c2ccccc12)NC(=O)OCc1ccccc1)B1OC2C[C@@H]3C[C@@H](C3(C)C)[C@]2(C)O1 (stereo partly specified)	41.2 nM	–
CC(C)C[C@H](NC(=O)[C@H](Cc1ccc(C(F)(F)F)cc1)NC(=O)c1cc(Cl)ccc1Cl)B(O)O	8.32 nM	Activity [3]: 100.4%; Activity [5]: 233.7%; Activity [7]: 98.15%
CC(C)C[C@H](NC(=O)OC(C)(C)C)C(=O)N[C@@H](Cc1ccccc1)B1OC2C[C@@H]3C[C@@H](C3(C)C)[C@]2(C)O1 (stereo partly specified)	120 nM	–
CC(C)C[C@H](NC(=O)[C@H](Cc1ccc(C(F)(F)F)cc1)NC(=O)c1cnccn1)B(O)O	42.6 nM	–
CC(C)C[C@H](NC(=O)[C@H](Cc1ccccc1)NC(=O)c1cnccn1)B(O)O [BORTEZOMIB]	–	Activity [3]: 11.63%; Activity [5]: 11.2%; Activity [7]: 9.57%
Cc1ccc(C[C@H](NC(=O)[C@H](Cc2c[nH]c3ccccc23)NC(=O)OCc2ccccc2)B2OC3C[C@@H]4C[C@@H](C4(C)C)[C@]3(C)O2)cc1 (stereo partly specified)	3.34 nM	–
CC(=O)N[C@@H](Cc1ccccc1)C(=O)N[C@@H](CC(C)C)B1OC2C[C@@H]3C[C@@H](C3(C)C)[C@]2(C)O1 (stereo partly specified)	2.34 nM	–
CC1(C)[C@@H]2CC3OB([C@H](Cc4ccccc4)NC(=O)[C@H](Cc4ccccc4)NC(=O)[C@H]4CCCc5ccccc54)O[C@@]3(C)[C@H]1C2 (stereo partly specified)	5.24 nM	–
CC(C)C[C@H](NC(=O)[C@H](Cc1cccc2ccccc12)NC(=O)c1cccc2c1CCCC2)B1OC2C[C@@H]3C[C@@H](C3(C)C)[C@]2(C)O1 (stereo partly specified)	1.34 nM	–

SMILES	IC50 ([1]; read-out: IC50)	also measured
Cc1ccc(C[C@H](NC(=O)[C@H](CC(C)C)NC(=O)OC(C)(C)C)B2OC3C[C@@H]4C[C@@H](C4(C)C)[C@]3(C)O2)cc1 (stereo partly specified)	471 nM	–
CC(C)C[C@H](NC(=O)[C@H](Cc1ccc2ccccc2c1)NC(=O)c1cccc2c1CCCC2)B1OC2C[C@@H]3C[C@@H](C3(C)C)[C@]2(C)O1 (stereo partly specified)	1.16 nM	–
CC(C)C[C@H](NC(=O)[C@H](Cc1ccc(O)cc1)NC(=O)OC(C)(C)C)B1OC2C[C@@H]3C[C@@H](C3(C)C)[C@]2(C)O1 (stereo partly specified)	16.4 nM	–
CC(C)C[C@H](NC(=O)[C@H](Cc1cccc2ccccc12)NC(=O)C1CCCc2ccccc21)B1OC2C[C@@H]3C[C@@H](C3(C)C)[C@]2(C)O1 (stereo partly specified)	4.26 nM	–
CC(C)C[C@H](NC(=O)[C@@H](NC(=O)c1cccc2c1CCCC2)C(C)C)B1OC2C[C@@H]3C[C@@H](C3(C)C)[C@]2(C)O1 (stereo partly specified)	6.96 nM	–
CC(C)C[C@H](NC(=O)[C@H](Cc1ccccc1)NC(=O)C1CCCc2ccccc21)B1OC2C[C@@H]3C[C@@H](C3(C)C)[C@]2(C)O1 (stereo partly specified)	4.18 nM	–
CC(C)C[C@H](NC(=O)[C@H](Cc1ccccc1)NC(=O)C1CCc2ccccc2C1)B1OC2C[C@@H]3C[C@@H](C3(C)C)[C@]2(C)O1 (stereo partly specified)	1.46 nM	–
O=C(N[C@@H](Cc1ccccc1)C(=O)N[C@@H](Cc1ccc(F)cc1)B(O)O)c1cnccn1	4.37 nM	–
CC(C)C[C@H](NC(=O)[C@H](Cc1ccccc1)NC(=O)[C@H]1CCCc2ccccc21)B1OC2C[C@@H]3C[C@@H](C3(C)C)[C@]2(C)O1 (stereo partly specified)	1.12 nM	–
Cc1cnc(C(=O)N[C@@H](Cc2ccccc2)C(=O)N[C@@H](CC(C)C)B(O)O)cn1	26.2 nM	–
CC(C)C[C@H](NC(=O)[C@H](Cc1ccc2ccccc2c1)NC(=O)C1CCCc2ccccc21)B1OC2C[C@@H]3C[C@@H](C3(C)C)[C@]2(C)O1 (stereo partly specified)	7.63 nM	–
CC(=O)N[C@@H](Cc1ccccc1)C(=O)N[C@@H](Cc1ccc(C)cc1)B1OC2C[C@@H]3C[C@@H](C3(C)C)[C@]2(C)O1 (stereo partly specified)	2.73 nM	–
CC(C)C[C@H](NC(=O)[C@H](Cc1ccccc1)NC(=O)[C@@H]1CCCc2ccccc21)B1OC2C[C@@H]3C[C@@H](C3(C)C)[C@]2(C)O1 (stereo partly specified)	5.17 nM	–
CC1(C)[C@@H]2CC3OB([C@H](Cc4ccc(F)cc4)NC(=O)[C@H](Cc4ccccc4)NC(=O)c4cnccn4)O[C@@]3(C)[C@H]1C2 (stereo partly specified)	3.21 nM	–
CCCC[C@H](NC(=O)[C@H](CC(C)C)NC(=O)OC(C)(C)C)B1OC2C[C@@H]3C[C@@H](C3(C)C)[C@]2(C)O1 (stereo partly specified)	49.5 nM	–
CC1(C)[C@@H]2CC3OB([C@H](Cc4ccc(F)cc4)NC(=O)[C@H](Cc4ccccc4)NC(=O)[C@H]4CCCc5ccccc54)O[C@@]3(C)[C@H]1C2 (stereo partly specified)	1.26 nM	–
Cc1ccc(C[C@H](NC(=O)[C@H](Cc2ccccc2)NC(=O)[C@H]2CCCc3ccccc32)B2OC3C[C@@H]4C[C@@H](C4(C)C)[C@]3(C)O2)cc1 (stereo partly specified)	6.7 nM	–
CC(C)C[C@H](NC(=O)[C@@H](NC(=O)C1CCCc2ccccc21)C(C)C)B1OC2C[C@@H]3C[C@@H](C3(C)C)[C@]2(C)O1 (stereo partly specified)	39 nM	–
CCCC[C@H](NC(=O)[C@H](Cc1ccccc1)NC(C)=O)B1OC2C[C@@H]3C[C@@H](C3(C)C)[C@]2(C)O1 (stereo partly specified)	8.46 nM	–
CCC(C)[C@H](NC(=O)C1CCCc2ccccc21)C(=O)N[C@@H](CC(C)C)B1OC2C[C@@H]3C[C@@H](C3(C)C)[C@]2(C)O1 (stereo partly specified)	17.2 nM	–
CC(C)C[C@H](NC(=O)[C@H](Cc1ccccc1)NC(=O)c1cccc2c1CCCC2)B1OC2C[C@@H]3C[C@@H](C3(C)C)[C@]2(C)O1 (stereo partly specified)	0.76 nM	IC50 ([1]; read-out: pIC50 (converted)): 1.32 nM
